# Patent publication US20260207777A1, “IMPROVED PEPTIDE INHIBITORS OF P53 BINDING PROTEIN 53BP1” (KAMAU THERAPEUTICS, INC., priority 2022, published 2026)
# Columns and labels:
# Type in all cases: cell-based, human
# CD34+ HSPCs [1] = assay: lentiviral-based pooled functional screen of i53 variant libraries at the HBB locus; NGS enrichment in mCherry+GFP+ vs mCherry+GFP- cells; details: MOI=2500
# Method: CD34+ HSPC cells were transduced using lentivirus at MOIs of 0.25-1 at day 1 post thaw. Cells were concentrated using centrifugation (180 g×7 min), counted, and added at a concentration of 4×10^6 cells/mL to media containing lentivirus, cyclosporin A (5 μM, Sigma Aldrich) and Synperonic F108 (0.5 mg/mL, Sigma Aldrich). After 4 h of incubation, cells were spun down, washed once with media, and seeded into lentivirus-free media at a density of 3.5×10^5 cells/mL.
# Chemically-modified single guide RNAs (sgRNAs) used to edit CD34+ HSPCs at the HBB locus were purchased from Synthego. […] Cells were collected, counted, and pelleted at 180 g×7 min. […]
# Three days after transduction, cells were edited in triplicate or quadruplet at HBB as described above, using HBB-UBB-GFP donor AAV6 (MOI of 2.5×10^4 vector genomes/cell). […] The DNA concentration of each sample was measured using a Qubit 1×dsDNA BR assay kit (ThermoFisher).
# An amplicon sequencing workflow was designed to sequence and quantify i53 variants within starting and post selection pools. […]
# This approach was used to confirm sequence diversity in plasmid and lentiviral libraries prior to screening. For screening data analyses, a first quality control was performed on all runs to validate good values in number of mapped reads (>1e5 reads per sample), percent reads carried over from parent (from cloning), and overall distribution of sequences (no bias). […]
# CD34+ HSPCs [2] = assay: editing of CD34+ HSPCs with purified i53 variant proteins and HBB-UBC-GFP AAV donor; flow cytometry; details: HBB locus; protein 0.4 mg/mL; MOIs 625 and 2500; both donors
# Method: Chemically-modified single guide RNAs (sgRNAs) used to edit CD34+ HSPCs at the HBB locus were purchased from Synthego. The sgRNA sequences were modified by adding 2′-O-methyl-3′-phosphorothioate at the three terminal nucleotides of the 5′ and 3′ ends. The target sequence for the HBB sgRNA is as follows: HBB: 5′[…]-3′ (SEQ ID NO: 74). Cas9 protein (SpyFi Cas9) was purchased from Aldevron. The RNPs were complexed at a Cas9:sgRNA molar ratio of 1:2.5 at 25° C. for 10-15 min prior to electroporation. Cells were collected, counted, and pelleted at 180 g×7 min. The cell pellets were resuspended in Maxcyte buffer with complexed RNPs and electroporated using a Maxcyte EXPERT ATx Nucleofector. After electroporation cells were plated at 3.5×10^5 cells/mL in media supplemented with cytokines and the desired AAV donor added at 5.0×10^2-2.5×10^4 vector genomes/cell. 24 h after nucleofection, cells were spun down, washed once with media, and seeded into AAV-free media at a density of 3.5×10^5 cells/mL.
# CD34+ HPSCs were edited with protein variants 3 days post thaw and were harvested 2 days post nucleofection for NGS analysis or 3-5 days post nucleofection for GFP expression analysis. Editing reactions with proteins at a given concentration were repeated in duplicate or triplicate (either using the same CD34+ HSPC donor or across multiple donors).
# Rates of targeted integration of the HBB UBC GFP donor were measured using a Beckman Coulter CytoFLEX. DAPI (Miltenyi Biotec) was used to discriminate live and dead cells. Flow cytometry data were analyzed using FlowJo 10 software.
# CD34+ HSPCs [3] = assay: GFP knock-in at the HBA locus with purified i53 variants and HBA-UBC-GFP AAV; flow cytometry; details: HBA locus; protein 0.4 mg/mL; MOIs 625 and 2500; both donors
# From the text: (§1) Chemically-modified single guide RNAs (sgRNAs) were used to edit CD34+ HSPCs at the HBA, CCR5, and IL2RG loci. The sgRNA sequences were modified by adding 2′-O-methyl-3′-phosphorothioate at the three terminal nucleotides of the 5′ and 3′ ends. The target sequences for the HBA, CCR5, and IL2RG sgRNA are as follows: HBA: 5′-[…]-3′ (SEQ ID NO: 78), CCR5: 5′-[…]-3′ (SEQ ID NO: 79) IL2RG: 5′-[…]-3′ (SEQ ID NO: 80). Cas9 protein (SpyFi Cas9) was purchased from Aldevron. The RNPs were complexed at a Cas9:sgRNA molar ratio of 1:2.5 at 25° C. for 10-15 min prior to electroporation. Cells were collected, counted, and pelleted at 180 g×7 min. The cell pellets were resuspended in Maxcyte buffer with complexed RNPs and electroporated using a Maxcyte EXPERT ATx Nucleofector. After electroporation cells were plated at 3.5×10^5 cells/mL in media supplemented with cytokines and the desired AAV donor added at 5.0×10^2-2.5×10^4 vector genomes/cell. 24 h after nucleofection, cells were spun down, washed once with media, and seeded into AAV-free media at a density of 3.5×10^5 cells/mL. […]
# (§2) Rates of targeted integration of the HBA-UBC-GFP, CCR5-UBC-GFP, and IL2RG-UBC-GFP donors were measured using a Beckman Coulter CytoFLEX. […] Flow cytometry data were analyzed using FlowJo 10 software.
# CD34+ HSPCs [4] = assay: GFP knock-in at the CCR5 locus with purified i53 variants and CCR5-UBC-GFP AAV; flow cytometry; details: CCR5 locus; protein 0.4 mg/mL; MOIs 625 and 2500; both donors
# From the text: as §1, §2
# CD34+ HSPCs [5] = assay: GFP knock-in at the IL2RG locus with purified i53 variants and IL2RG-UBC-GFP AAV; flow cytometry; details: protein 0.4 mg/mL, MOIs 625 and 2500, both donors
# From the text: as §1, §2
Substance,"differential variant enrichment in the mCherry+GFP+ population relative to parent L67R (CD34+ HSPCs [1]; combinatorial library at positions 12 and 14, parent L67R)",% GFP incorporation relative to the no protein control (CD34+ HSPCs [2]),% GFP incorporation relative to the no protein control (CD34+ HSPCs [3]),% GFP incorporation relative to the no protein control (CD34+ HSPCs [4]),% GFP incorporation relative to the no protein control (CD34+ HSPCs [5]),"differential variant enrichment in the mCherry+GFP+ population relative to parent L67H (CD34+ HSPCs [1]; combinatorial library at positions 12 and 14, iterating on L67H)"
T12Y.T14E.L67R: purified hit mutant of i53,particularly beneficial to HDR levels at HBB relative to parent T12 T14 L67R,increase % GFP incorporation relative to the no protein control,increase % GFP incorporation relative to the no protein control,increase % GFP incorporation relative to the no protein control,increase % GFP incorporation relative to the no protein control,–
T12V.T14H.L67H: purified hit mutant of i53,–,increase % GFP incorporation relative to the no protein control,increase % GFP incorporation relative to the no protein control,increase % GFP incorporation relative to the no protein control,increase % GFP incorporation relative to the no protein control,emerged as hits relative to parent L67H
